Read-outs that look alike come from different tables or passages of the source.
Experiments:
Experiment in all cases: selectivity profiling in a panel of 340 wild-type kinases (Reaction Biology Europe)
Type in all cases: binding
340 wild-type kinases [1] = target: T1, 340 wild-type kinases (Homo sapiens, UniProt O96017)
T1 construct: purchased Reaction Biology Europe

340 wild-type kinases [2] = target: T2, 340 wild-type kinases (Homo sapiens, UniProt P15056)
T2 construct: purchased Reaction Biology Europe

340 wild-type kinases [3] = target: T3, 340 wild-type kinases (Homo sapiens, UniProt P28482)
T3 construct: purchased Reaction Biology Europe
T3 sequence (P28482 whole entry): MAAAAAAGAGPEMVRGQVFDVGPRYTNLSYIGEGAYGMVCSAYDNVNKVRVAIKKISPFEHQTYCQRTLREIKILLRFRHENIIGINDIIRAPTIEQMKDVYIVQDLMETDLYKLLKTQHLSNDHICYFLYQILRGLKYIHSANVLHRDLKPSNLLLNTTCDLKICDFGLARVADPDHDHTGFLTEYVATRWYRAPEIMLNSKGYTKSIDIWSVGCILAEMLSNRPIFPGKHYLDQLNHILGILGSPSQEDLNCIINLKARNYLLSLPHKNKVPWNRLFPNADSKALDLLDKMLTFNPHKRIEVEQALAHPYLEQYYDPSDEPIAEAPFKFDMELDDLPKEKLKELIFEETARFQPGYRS

340 wild-type kinases [4] = target: T4, 340 wild-type kinases (Homo sapiens, UniProt P33981)
T4 construct: purchased Reaction Biology Europe
T4 sequence (P33981 1-857): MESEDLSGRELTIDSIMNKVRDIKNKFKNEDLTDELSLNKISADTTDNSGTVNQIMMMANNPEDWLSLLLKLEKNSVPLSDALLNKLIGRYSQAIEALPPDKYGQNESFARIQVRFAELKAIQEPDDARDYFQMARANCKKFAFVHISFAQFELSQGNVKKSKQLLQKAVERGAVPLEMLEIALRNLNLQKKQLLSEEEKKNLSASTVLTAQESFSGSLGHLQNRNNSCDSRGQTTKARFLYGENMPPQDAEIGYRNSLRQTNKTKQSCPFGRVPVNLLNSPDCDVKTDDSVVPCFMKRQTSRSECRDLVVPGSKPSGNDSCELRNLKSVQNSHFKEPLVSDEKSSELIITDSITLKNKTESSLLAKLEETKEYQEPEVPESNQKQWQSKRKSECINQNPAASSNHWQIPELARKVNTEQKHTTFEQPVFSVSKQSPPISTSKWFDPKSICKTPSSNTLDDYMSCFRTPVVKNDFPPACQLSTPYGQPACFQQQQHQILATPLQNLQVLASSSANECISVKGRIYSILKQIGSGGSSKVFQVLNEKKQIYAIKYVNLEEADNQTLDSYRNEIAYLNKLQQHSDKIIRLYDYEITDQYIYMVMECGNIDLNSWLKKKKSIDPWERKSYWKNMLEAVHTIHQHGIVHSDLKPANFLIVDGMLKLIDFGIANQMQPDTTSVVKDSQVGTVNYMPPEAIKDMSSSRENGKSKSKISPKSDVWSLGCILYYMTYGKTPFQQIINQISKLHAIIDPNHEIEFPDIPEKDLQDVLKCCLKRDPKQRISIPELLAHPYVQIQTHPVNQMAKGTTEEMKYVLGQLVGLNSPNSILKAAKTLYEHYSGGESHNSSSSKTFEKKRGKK

340 wild-type kinases [5] = target: T5, 340 wild-type kinases (Homo sapiens, UniProt P35916)
T5 construct: purchased Reaction Biology Europe

340 wild-type kinases [6] = target: T6, 340 wild-type kinases (Homo sapiens, UniProt P41240)
T6 construct: purchased Reaction Biology Europe
T6 sequence (P41240 whole entry): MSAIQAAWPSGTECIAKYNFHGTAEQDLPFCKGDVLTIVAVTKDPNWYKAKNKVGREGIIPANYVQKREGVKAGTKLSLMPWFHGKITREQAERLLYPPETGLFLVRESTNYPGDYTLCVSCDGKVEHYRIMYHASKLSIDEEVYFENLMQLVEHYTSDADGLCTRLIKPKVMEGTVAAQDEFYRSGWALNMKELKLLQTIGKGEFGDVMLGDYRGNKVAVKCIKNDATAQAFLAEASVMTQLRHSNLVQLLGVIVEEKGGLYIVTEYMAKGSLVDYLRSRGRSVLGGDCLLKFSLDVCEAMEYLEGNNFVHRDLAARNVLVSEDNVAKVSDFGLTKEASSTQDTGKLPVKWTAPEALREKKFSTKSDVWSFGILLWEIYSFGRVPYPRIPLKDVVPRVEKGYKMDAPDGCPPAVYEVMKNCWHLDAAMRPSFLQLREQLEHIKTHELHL

340 wild-type kinases [7] = target: T7, 340 wild-type kinases (Homo sapiens, UniProt P43250)
T7 construct: purchased Reaction Biology Europe

340 wild-type kinases [8] = target: T8, 340 wild-type kinases (Homo sapiens, UniProt P51451)
T8 construct: purchased Reaction Biology Europe
T8 sequence (P51451 whole entry): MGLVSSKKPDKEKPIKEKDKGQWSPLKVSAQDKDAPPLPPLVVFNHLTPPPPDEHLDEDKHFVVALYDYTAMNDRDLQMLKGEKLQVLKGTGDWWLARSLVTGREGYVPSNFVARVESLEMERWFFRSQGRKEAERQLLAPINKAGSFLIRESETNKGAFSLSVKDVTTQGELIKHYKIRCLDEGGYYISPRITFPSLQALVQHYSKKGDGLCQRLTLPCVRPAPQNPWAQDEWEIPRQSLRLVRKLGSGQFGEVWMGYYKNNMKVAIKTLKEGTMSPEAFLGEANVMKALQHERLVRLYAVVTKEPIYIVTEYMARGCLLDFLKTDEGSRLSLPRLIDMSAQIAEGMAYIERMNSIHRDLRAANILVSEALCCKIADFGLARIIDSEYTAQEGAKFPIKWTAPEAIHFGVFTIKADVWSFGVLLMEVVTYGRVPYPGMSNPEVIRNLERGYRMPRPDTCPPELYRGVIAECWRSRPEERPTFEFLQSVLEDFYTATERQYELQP

340 wild-type kinases [9] = target: T9, 340 wild-type kinases (Homo sapiens, UniProt P54764)
T9 construct: purchased Reaction Biology Europe
T9 sequence (P54764 20-986): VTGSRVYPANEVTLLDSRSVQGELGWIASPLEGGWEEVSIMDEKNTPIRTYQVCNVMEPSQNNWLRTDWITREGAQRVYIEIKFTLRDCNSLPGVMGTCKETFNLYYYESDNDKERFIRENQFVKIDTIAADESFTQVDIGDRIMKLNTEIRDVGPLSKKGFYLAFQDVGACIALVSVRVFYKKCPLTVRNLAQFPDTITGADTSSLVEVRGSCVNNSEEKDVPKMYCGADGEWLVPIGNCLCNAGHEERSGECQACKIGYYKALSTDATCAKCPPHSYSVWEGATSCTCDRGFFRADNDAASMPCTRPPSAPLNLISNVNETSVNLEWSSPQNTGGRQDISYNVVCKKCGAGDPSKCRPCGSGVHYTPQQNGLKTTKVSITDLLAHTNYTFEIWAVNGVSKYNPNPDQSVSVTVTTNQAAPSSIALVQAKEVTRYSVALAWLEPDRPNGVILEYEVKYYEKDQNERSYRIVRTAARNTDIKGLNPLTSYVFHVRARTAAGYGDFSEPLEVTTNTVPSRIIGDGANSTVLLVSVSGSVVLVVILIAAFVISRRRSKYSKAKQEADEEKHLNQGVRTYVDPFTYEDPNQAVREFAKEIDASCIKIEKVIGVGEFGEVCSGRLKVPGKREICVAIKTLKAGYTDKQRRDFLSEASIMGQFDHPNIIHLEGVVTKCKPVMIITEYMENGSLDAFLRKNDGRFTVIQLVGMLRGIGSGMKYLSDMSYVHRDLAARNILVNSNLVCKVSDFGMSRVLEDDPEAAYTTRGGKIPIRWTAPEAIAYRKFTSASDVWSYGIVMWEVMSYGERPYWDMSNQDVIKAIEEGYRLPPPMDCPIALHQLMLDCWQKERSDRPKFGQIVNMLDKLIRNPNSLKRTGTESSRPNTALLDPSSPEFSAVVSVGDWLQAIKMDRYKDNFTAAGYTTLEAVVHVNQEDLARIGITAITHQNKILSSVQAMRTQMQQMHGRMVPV

340 wild-type kinases [10] = target: T10, 340 wild-type kinases (Homo sapiens, UniProt Q02779)
T10 construct: purchased Reaction Biology Europe

340 wild-type kinases [11] = target: T11, 340 wild-type kinases (Homo sapiens, UniProt Q05655)
T11 construct: purchased Reaction Biology Europe
T11 sequence (Q05655 whole entry): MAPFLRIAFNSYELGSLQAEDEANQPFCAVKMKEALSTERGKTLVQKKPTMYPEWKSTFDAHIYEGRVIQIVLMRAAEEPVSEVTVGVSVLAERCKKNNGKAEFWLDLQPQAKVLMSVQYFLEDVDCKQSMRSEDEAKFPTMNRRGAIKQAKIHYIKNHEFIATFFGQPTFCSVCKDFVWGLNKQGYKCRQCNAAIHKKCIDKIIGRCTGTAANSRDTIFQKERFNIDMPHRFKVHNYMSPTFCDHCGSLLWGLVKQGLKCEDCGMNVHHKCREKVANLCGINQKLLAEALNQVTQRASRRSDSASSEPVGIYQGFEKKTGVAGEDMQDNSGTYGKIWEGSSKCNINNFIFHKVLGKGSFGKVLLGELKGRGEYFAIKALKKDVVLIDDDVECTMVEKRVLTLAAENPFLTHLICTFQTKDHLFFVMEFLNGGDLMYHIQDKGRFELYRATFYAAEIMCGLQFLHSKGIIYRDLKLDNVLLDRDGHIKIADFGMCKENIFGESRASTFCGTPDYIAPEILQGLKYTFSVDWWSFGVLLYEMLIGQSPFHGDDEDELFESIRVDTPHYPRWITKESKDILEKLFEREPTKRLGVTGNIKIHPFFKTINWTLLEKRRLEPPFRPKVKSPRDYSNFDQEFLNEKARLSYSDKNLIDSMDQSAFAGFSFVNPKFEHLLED

340 wild-type kinases [12] = target: T12, 340 wild-type kinases (Homo sapiens, UniProt Q14004)
T12 construct: purchased Reaction Biology Europe

340 wild-type kinases [13] = target: T13, 340 wild-type kinases (Homo sapiens, UniProt Q9BUB5)
T13 construct: purchased Reaction Biology Europe

340 wild-type kinases [14] = target: T14, 340 wild-type kinases (Homo sapiens, UniProt Q9H1R3)
T14 construct: purchased Reaction Biology Europe
T14 sequence (Q9H1R3 whole entry): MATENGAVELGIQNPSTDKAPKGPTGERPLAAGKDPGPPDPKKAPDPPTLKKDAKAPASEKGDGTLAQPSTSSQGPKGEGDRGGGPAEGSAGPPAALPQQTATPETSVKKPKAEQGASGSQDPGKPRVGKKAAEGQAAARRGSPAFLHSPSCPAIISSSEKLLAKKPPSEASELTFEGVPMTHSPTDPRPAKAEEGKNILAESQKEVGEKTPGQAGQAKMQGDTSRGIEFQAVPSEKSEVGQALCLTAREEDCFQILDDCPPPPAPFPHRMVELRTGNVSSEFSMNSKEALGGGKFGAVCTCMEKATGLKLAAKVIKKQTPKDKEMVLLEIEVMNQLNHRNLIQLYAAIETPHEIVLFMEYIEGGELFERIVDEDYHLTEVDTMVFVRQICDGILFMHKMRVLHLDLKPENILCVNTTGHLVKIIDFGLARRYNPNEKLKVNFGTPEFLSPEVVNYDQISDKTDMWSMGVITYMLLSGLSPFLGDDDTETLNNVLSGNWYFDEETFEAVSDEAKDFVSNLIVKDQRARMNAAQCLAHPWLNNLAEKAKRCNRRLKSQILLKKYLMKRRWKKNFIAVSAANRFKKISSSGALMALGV

340 wild-type kinases [15] = target: T15, 340 wild-type kinases (Homo sapiens, UniProt Q9P0L2)
T15 construct: purchased Reaction Biology Europe
T15 sequence (Q9P0L2 whole entry): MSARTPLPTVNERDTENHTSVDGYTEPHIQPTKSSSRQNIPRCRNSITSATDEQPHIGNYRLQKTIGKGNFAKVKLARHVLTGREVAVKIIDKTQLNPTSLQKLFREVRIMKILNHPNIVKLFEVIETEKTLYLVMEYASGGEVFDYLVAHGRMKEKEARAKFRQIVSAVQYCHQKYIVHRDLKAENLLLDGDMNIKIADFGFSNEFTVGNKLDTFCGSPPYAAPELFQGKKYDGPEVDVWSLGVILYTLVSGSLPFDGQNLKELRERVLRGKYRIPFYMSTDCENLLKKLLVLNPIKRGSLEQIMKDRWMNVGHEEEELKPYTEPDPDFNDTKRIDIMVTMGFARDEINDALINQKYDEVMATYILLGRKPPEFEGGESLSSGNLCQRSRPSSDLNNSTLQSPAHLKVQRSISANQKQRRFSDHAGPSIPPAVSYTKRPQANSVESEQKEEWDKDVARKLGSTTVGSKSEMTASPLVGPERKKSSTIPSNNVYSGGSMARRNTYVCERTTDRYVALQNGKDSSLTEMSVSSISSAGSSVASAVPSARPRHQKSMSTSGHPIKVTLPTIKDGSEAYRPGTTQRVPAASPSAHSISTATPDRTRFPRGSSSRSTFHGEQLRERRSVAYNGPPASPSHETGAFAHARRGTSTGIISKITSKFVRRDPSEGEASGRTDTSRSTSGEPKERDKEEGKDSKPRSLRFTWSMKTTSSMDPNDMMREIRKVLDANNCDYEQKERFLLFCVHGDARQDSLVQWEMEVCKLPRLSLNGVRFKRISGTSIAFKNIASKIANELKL

340 wild-type kinases [16] = target: T16, 340 wild-type kinases (Homo sapiens, UniProt Q9Y6E0)
T16 construct: purchased Reaction Biology Europe

[17] = read-out: CDK13/CycK residual activity

T1 sequence (O96017 whole entry): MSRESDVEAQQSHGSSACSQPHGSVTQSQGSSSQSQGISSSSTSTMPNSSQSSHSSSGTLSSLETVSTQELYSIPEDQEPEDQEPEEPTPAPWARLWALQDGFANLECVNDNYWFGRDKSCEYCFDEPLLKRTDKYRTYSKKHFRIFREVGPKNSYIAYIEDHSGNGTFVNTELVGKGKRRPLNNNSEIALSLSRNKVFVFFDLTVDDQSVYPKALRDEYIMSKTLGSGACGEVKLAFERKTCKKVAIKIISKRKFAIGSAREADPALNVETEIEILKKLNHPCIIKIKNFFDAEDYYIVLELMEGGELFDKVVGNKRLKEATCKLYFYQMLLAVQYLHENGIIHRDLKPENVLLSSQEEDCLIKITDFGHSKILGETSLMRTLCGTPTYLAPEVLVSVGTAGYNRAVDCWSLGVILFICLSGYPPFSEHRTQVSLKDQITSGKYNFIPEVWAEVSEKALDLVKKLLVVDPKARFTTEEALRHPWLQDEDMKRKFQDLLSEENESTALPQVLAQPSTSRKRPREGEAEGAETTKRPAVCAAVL

## CNC(=O)c1ccc2c(c1)C(=O)c1ccc(Nc3ccc(F)c(NC(=O)C4CC4)c3)cc1CC2 [Compound 2015]
340 wild-type kinases [1]; 0.2 µM 2015, read-out: CHK2 residual activity
  remaining activity at 0.2 µM: 102%
340 wild-type kinases [1]; 1 µM 2015, read-out: CHK2 residual activity
  remaining activity at 1 µM: 94.9%
340 wild-type kinases [1]; CHK2, 0.2 µM, read-out: residual activity
  remaining activity at 0.2 µM: 102%
340 wild-type kinases [1]; CHK2, 1 µM, read-out: residual activity
  remaining activity at 1 µM: 94.9%
340 wild-type kinases [2]; 0.2 µM 2015, read-out: BRAF residual activity
  remaining activity at 0.2 µM: 93.9%
340 wild-type kinases [2]; 1 µM 2015, read-out: BRAF residual activity
  remaining activity at 1 µM: 104%
340 wild-type kinases [2]; BRAF, 0.2 µM, read-out: residual activity
  remaining activity at 0.2 µM: 94%
340 wild-type kinases [2]; BRAF, 1 µM, read-out: residual activity
  remaining activity at 1 µM: 104%
340 wild-type kinases [3]; 0.2 µM 2015, read-out: ERK2 residual activity
  remaining activity at 0.2 µM: 99.1%
340 wild-type kinases [3]; 1 µM 2015, read-out: ERK2 residual activity
  remaining activity at 1 µM: 90.5%
340 wild-type kinases [3]; ERK2, 0.2 µM, read-out: residual activity
  remaining activity at 0.2 µM: 99.1%
340 wild-type kinases [3]; ERK2, 1 µM, read-out: residual activity
  remaining activity at 1 µM: 90.5%
340 wild-type kinases [4]; 0.2 µM 2015, read-out: TTK residual activity
  remaining activity at 0.2 µM: 95.3%
340 wild-type kinases [4]; 1 µM 2015, read-out: TTK residual activity
  remaining activity at 1 µM: 90.4%
340 wild-type kinases [4]; TTK, 0.2 µM, read-out: residual activity
  remaining activity at 0.2 µM: 95.3%
340 wild-type kinases [4]; TTK, 1 µM, read-out: residual activity
  remaining activity at 1 µM: 90.4%
340 wild-type kinases [5]; 0.2 µM 2015, read-out: VEGFR3 residual activity
  remaining activity at 0.2 µM: 109%
340 wild-type kinases [5]; 1 µM 2015, read-out: VEGFR3 residual activity
  remaining activity at 1 µM: 94.2%
340 wild-type kinases [5]; VEGFR3, 0.2 µM, read-out: residual activity
  remaining activity at 0.2 µM: 109%
340 wild-type kinases [5]; VEGFR3, 1 µM, read-out: residual activity
  remaining activity at 1 µM: 94.2%
340 wild-type kinases [6]; 0.2 µM 2015, read-out: CSK residual activity
  remaining activity at 0.2 µM: 114%
340 wild-type kinases [6]; 1 µM 2015, read-out: CSK residual activity
  remaining activity at 1 µM: 93.1%
340 wild-type kinases [6]; CSK, 0.2 µM, read-out: residual activity
  remaining activity at 0.2 µM: 114%
340 wild-type kinases [6]; CSK, 1 µM, read-out: residual activity
  remaining activity at 1 µM: 93.1%
340 wild-type kinases [7]; 0.2 µM 2015, read-out: GRK6 residual activity
  remaining activity at 0.2 µM: 111%
340 wild-type kinases [7]; 1 µM 2015, read-out: GRK6 residual activity
  remaining activity at 1 µM: 110%
340 wild-type kinases [7]; GRK6, 0.2 µM, read-out: residual activity
  remaining activity at 0.2 µM: 111%
340 wild-type kinases [7]; GRK6, 1 µM, read-out: residual activity
  remaining activity at 1 µM: 110%
340 wild-type kinases [8]; 0.2 µM 2015, read-out: BLK residual activity
  remaining activity at 0.2 µM: 107%
340 wild-type kinases [8]; 1 µM 2015, read-out: BLK residual activity
  remaining activity at 1 µM: 104%
340 wild-type kinases [8]; BLK, 0.2 µM, read-out: residual activity
  remaining activity at 0.2 µM: 107%
340 wild-type kinases [8]; BLK, 1 µM, read-out: residual activity
  remaining activity at 1 µM: 104%
340 wild-type kinases [9]; 0.2 µM 2015, read-out: EPHA4 residual activity
  remaining activity at 0.2 µM: 95.1%
340 wild-type kinases [9]; 1 µM 2015, read-out: EPHA4 residual activity
  remaining activity at 1 µM: 91.4%
340 wild-type kinases [9]; EPHA4, 0.2 µM, read-out: residual activity
  remaining activity at 0.2 µM: 95.1%
340 wild-type kinases [9]; EPHA4, 1 µM, read-out: residual activity
  remaining activity at 1 µM: 91.5%
340 wild-type kinases [10]; 0.2 µM 2015, read-out: MAP3K10 residual activity
  remaining activity at 0.2 µM: 111%
340 wild-type kinases [10]; 1 µM 2015, read-out: MAP3K10 residual activity
  remaining activity at 1 µM: 106%
340 wild-type kinases [10]; MAP3K10, 0.2 µM, read-out: residual activity
  remaining activity at 0.2 µM: 111%
340 wild-type kinases [10]; MAP3K10, 1 µM, read-out: residual activity
  remaining activity at 1 µM: 106%
340 wild-type kinases [11]; 0.2 µM 2015, read-out: PKCdelta residual activity
  remaining activity at 0.2 µM: 95.6%
340 wild-type kinases [11]; 1 µM 2015, read-out: PKCdelta residual activity
  remaining activity at 1 µM: 97%
340 wild-type kinases [11]; PKCdelta, 0.2 µM, read-out: residual activity
  remaining activity at 0.2 µM: 95.6%
340 wild-type kinases [11]; PKCdelta, 1 µM, read-out: residual activity
  remaining activity at 1 µM: 97%
340 wild-type kinases [12]; [17]
  remaining activity at 0.2 µM: 87.3%
  remaining activity at 1 µM: 86.5%
340 wild-type kinases [12]; read-out: residual activity
  remaining activity at 0.2 µM: 87.3%
  remaining activity at 1 µM: 86.5%
340 wild-type kinases [13]; 0.2 µM 2015, read-out: MKNK1 residual activity
  remaining activity at 0.2 µM: 98.2%
340 wild-type kinases [13]; 1 µM 2015, read-out: MKNK1 residual activity
  remaining activity at 1 µM: 91.6%
340 wild-type kinases [13]; MKNK1, 0.2 µM, read-out: residual activity
  remaining activity at 0.2 µM: 98.2%
340 wild-type kinases [13]; MKNK1, 1 µM, read-out: residual activity
  remaining activity at 1 µM: 91.6%
340 wild-type kinases [14]; 0.2 µM 2015, read-out: MYLK2 residual activity
  remaining activity at 0.2 µM: 89.3%
340 wild-type kinases [14]; 1 µM 2015, read-out: MYLK2 residual activity
  remaining activity at 1 µM: 77.6%
340 wild-type kinases [14]; MYLK2, 0.2 µM, read-out: residual activity
  remaining activity at 0.2 µM: 89.3%
340 wild-type kinases [14]; MYLK2, 1 µM, read-out: residual activity
  remaining activity at 1 µM: 77.6%
340 wild-type kinases [15]; 0.2 µM 2015, read-out: MARK1 residual activity
  remaining activity at 0.2 µM: 97.9%
340 wild-type kinases [15]; 1 µM 2015, read-out: MARK1 residual activity
  remaining activity at 1 µM: 95.7%
340 wild-type kinases [15]; MARK1, 0.2 µM, read-out: residual activity
  remaining activity at 0.2 µM: 97.9%
340 wild-type kinases [15]; MARK1, 1 µM, read-out: residual activity
  remaining activity at 1 µM: 95.7%
340 wild-type kinases [16]; 0.2 µM 2015, read-out: MST3 residual activity
  remaining activity at 0.2 µM: 119%
340 wild-type kinases [16]; 1 µM 2015, read-out: MST3 residual activity
  remaining activity at 1 µM: 117%
340 wild-type kinases [16]; MST3, 0.2 µM, read-out: residual activity
  remaining activity at 0.2 µM: 119%
340 wild-type kinases [16]; MST3, 1 µM, read-out: residual activity
  remaining activity at 1 µM: 117%
